In the oligonucleotide strings, read from the 5' end, every base follows the letter of its sugar. An asterisk marks phosphorothioate; unmarked linkages are phosphodiester. Other units and linkages are bracketed, terminal groups are in braces. A string of capitals states the bases alone. m = 2'-O-methyl
Biological target: T1, human TLR7 (Homo sapiens, UniProt Q9NYK1)
T1 construct: HA; host or cells: 293XL-hTLR7-HA (HEK293)
T1 sequence (Q9NYK1 27-1049): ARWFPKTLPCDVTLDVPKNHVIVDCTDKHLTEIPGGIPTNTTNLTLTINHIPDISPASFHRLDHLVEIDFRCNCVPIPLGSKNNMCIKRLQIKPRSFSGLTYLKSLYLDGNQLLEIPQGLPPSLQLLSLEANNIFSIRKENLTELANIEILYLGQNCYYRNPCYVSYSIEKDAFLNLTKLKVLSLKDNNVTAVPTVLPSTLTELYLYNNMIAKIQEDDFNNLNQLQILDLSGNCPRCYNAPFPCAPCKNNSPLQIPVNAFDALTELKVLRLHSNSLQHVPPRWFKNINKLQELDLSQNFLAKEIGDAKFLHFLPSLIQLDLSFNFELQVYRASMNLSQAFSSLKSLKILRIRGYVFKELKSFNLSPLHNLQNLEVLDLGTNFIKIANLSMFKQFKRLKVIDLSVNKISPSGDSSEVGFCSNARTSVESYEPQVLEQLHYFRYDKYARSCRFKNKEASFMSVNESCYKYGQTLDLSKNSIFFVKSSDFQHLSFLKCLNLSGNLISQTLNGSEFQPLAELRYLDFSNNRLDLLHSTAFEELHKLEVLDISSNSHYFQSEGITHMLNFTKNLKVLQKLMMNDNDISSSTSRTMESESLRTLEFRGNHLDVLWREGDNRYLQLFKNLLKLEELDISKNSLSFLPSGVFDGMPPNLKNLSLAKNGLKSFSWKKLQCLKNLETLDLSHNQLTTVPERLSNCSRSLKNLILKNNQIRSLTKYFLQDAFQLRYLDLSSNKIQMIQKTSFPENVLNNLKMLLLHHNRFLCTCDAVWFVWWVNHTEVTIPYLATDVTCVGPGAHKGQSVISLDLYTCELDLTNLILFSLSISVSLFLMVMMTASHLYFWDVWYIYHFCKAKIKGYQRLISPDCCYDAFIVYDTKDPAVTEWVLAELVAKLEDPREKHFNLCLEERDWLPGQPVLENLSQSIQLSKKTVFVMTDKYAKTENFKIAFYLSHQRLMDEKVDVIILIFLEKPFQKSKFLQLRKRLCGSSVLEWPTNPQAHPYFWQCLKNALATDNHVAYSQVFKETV
Assay: HEK-TLR7 NF-κB-luciferase reporter, R848 stimulation
Format: cell-based
Details: for TLR7 400 nM: 3mer 2'OMe ASO at 400 nM; for TLR7 400 nM / TLR7 2 uM: HEK-TLR7, value relative to Ligand only = 1.000, NT = 0.000; for TLR7 2 uM: 3mer 2'OMe ASO at 2 uM; for TLR7 100 nM (averaged NF-κB-Luciferase level relative to R848 condition): ASO 100 nM; for TLR7 100 nM (averaged NF-κB-Luciferase level relative to R848 condition) / TLR7 500 nM (averaged NF-κB-Luciferase level relative to R848 condition): relative to R848 only, given as fraction; for TLR7 500 nM (averaged NF-κB-Luciferase level relative to R848 condition): ASO 500 nM
Procedure: In such examples, inhibition of TLR7 activity can be identified by observation of an overall decreased TLR7 response of the cell population, or a lower proportion of cells having TLR7-positive activity as compared to positive control condition in which cells are treated with TLR7 agonist in the absence of the oligonucleotide (or in the presence of an appropriate control inhibitory agent). In one example, 293XLhTLR7 (referred to as HEK-TLR7) cells are transfected with pNF-κB-Luc4 reporter, incubated with an oligonucleotide, and then stimulated with R848. TLR7 activity can be determined by a luciferase assay, which measures activated NF-κB by luminescence. TLR7 activity can also be analysed by measuring cytokine levels, for example by ELISA. […] TLR7 activity may then be assessed by the gene or protein expression of TLR7-responsive genes, such as Tnfα and Oas3.
For cGAS stimulations, cells were treated for indicated duration with ASOs, prior to transfection with ISD70 (human cells) or ISD45 (mouse cells) (the ASOs were not washed off prior to ISD transfection unless otherwise indicated). The cGAS ligands ISD45 (Stetson and Medzhitov, 2006) and ISD70 (also known as VACV-70 (Unterholzner et al., 2010)) (Table 1) were resuspended as follows: 5 1d of sense and 5 μl of antisense strands at 10 μg/μl were added to 90 μl PBS under sterile conditions, heated at 75° C. for 30 min, prior to letting cool down at room temperature and aliquoting (stock at 1 μg/1 l). The ISDs were transfected at a concentration of […] at a ratio of 1 μg:1 μl with Lipofectamine 2000 in Opti-MEM (Thermo Fisher Scientific). HEK-TLR3, HEK-TLR7 and […] were treated with indicated concentration of ASOs for 20-50 min, prior to stimulation with poly(I:C) (Invivogen), R848 (Invivogen), Motolimod (MedChemExpress) and the Class B CpG oligonucleotides ODN 2006 (synthesised by IDT and resuspended in RNase-free TE buffer [Table 1]), respectively. The TLR2/1 agonist PAM3CSK4 (Invivogen), the TLR4 agonist lipopolysaccharide (Invivogen), the Class B CpG oligonucleotides ODN 1826 (synthesised by IDT and resuspended in RNase-free TE buffer), the mouse Sting agonist DMXAA (Cayman) and the human STING agonist (compound #3 from (Raanjulu et al., 2018), referred to as GSK herein—kind gift from Cancer Therapeutics CRC, Australia) were used at indicated concentrations. Aspirin (Sigma—A2093) was resuspended in pure medium to 10 mM, filter sterilised and added to the cells at 2 mM final. All ASOs were synthesised by Integrated DNA Technologies (IDT), and resuspended in RNase-free TE buffer, pH 8.0 (Thermo Fisher Scientific). Cell viability was assessed by adding 1× fresh resazurin solution to the wells (10λ solution made up with 7 mg resazurin [Sigma—R7017] dissolved in 3.5 ml PBS, sterile filtered at […]) for 4 h, prior to reading at with a Fluostar OPTIMA (BMG LABTECH) plate-reader (fluorescence: Excitation 535 nm, Emission 590); wells with medium only and 1× resazurin were used as blanks.
Following transfection, the cells were collected from the 6-wells and aliquoted into 96-wells, just before ASO and overnight TLR stimulation (as above described). Similarly, the LL171 cells expressing and ISRE-Luc reporter were treated overnight.

Sequence | TLR7 400 nM | TLR7 2 uM | TLR7 100 nM (averaged NF-κB-Luciferase level relative to R848 condition) | TLR7 500 nM (averaged NF-κB-Luciferase level relative to R848 condition)
AAU (antisense mA*mA*mU) | 1.340 | 0.888 | – | –
ACACTTCGTGGGGTCC (antisense; LNA-modified, pattern not given here) [HPRT LNA-665 V1] | – | – | 0.548 | 0.086
ACU (antisense mA*mC*mU) | 1.322 | 0.916 | – | –
AGU (antisense mA*mG*mU) | 1.025 | 0.952 | – | –
AUA (antisense mA*mU*mA) | 1.171 | 0.905 | – | –
AUG (mA*mU*mG) | 0.987 | 0.602 | – | –
AUU (mA*mU*mU) | 1.221 | 0.700 | – | –
CAACACTTCGTGGGGT (antisense; LNA-modified, pattern not given here) [HPRT LNA-667 V1] | – | – | 0.663 | 0.476
CAU (mC*mA*mU) | 1.288 | 0.995 | – | –
CCAAGATCAGCAGTCT (antisense; LNA-modified, pattern not given here) [CTNN2B-2341 LNA KL] | – | – | 0.882 | 0.697
CCATCCATGAGGTCCT (antisense; LNA-modified, pattern not given here) [CTNN2B-2545 LNA V1] | – | – | 0.992 | 0.644
CCU (mC*mC*mU) | 1.210 | 0.880 | – | –
CGU (mC*mG*mU) | 1.372 | 0.963 | – | –
CUA (mC*mU*mA) | 1.388 | 0.953 | – | –
CUC (mC*mU*mC) | 1.288 | 0.984 | – | –
CUG (mC*mU*mG) | 1.405 | 0.804 | – | –
GATAGCACCTTCAGCA (antisense; LNA-modified, pattern not given here) [CTNN2B-1294 LNA KL] | – | – | 0.434 | 0.049
GCAGGCTCAGTGATGT (antisense; LNA-modified, pattern not given here) [CTNN2B-1642 LNA V1] | – | – | 0.676 | 0.189
GCATCCACCACGTCGT (antisense; LNA-modified, pattern not given here) [EGFR-3267 LNA V1] | – | – | 0.555 | 0.085
GCCATCCACTTGATAG (antisense; LNA-modified, pattern not given here) [EGFR-2874 LNA V1] | – | – | 0.671 | 0.123
GCCATGCTGGCTCGGA (antisense; LNA-modified, pattern not given here) [CAMSAP1-2584 LNA V1] | – | – | 0.638 | 0.175
GCCATGTTTCTTCTTG (antisense; LNA-modified, pattern not given here) [MB21D1-1248 LNA KL] | – | – | 0.816 | 0.021
GCU (mG*mC*mU) | 1.339 | 0.852 | – | –
GGCTGGAATCCGAGTT (antisense; LNA-modified, pattern not given here) [EGFR-4705 LNA KL] | – | – | 0.417 | 0.041
GGTTACGGCTCAGTAT (antisense; LNA-modified, pattern not given here) [CAMSAP1-4295 LNA KL] | – | – | 0.438 | 0.140
GGU (mG*mG*mU) | 0.938 | 0.847 | – | –
GTATCGAAAGAGTCTG (antisense; LNA-modified, pattern not given here) [EGFR-3908 LNA KL] | – | – | 0.562 | 0.113
GTCCCCTGTTGACTGG (antisense; LNA-modified, pattern not given here) [HPRT LNA-489 KL] | – | – | 0.557 | 0.123
GTCTTGGCTTCGTGGA (antisense; LNA-modified, pattern not given here) [MB21D1-522 LNA V1] | – | – | 0.652 | 0.056
GTGTCTGGAAGCTTCC (antisense; LNA-modified, pattern not given here) [CTNN2B-809 LNA V1] | – | – | 0.355 | 0.067

— patent publication US20240384268A1, “Oligonucleotides” (Hudson Institute of Medical Research, priority 2021, published 2024)
